Assay results as given in PubChem BioAssay AID248 (DTP/NCI, 2004).
“And” between values parts separate entries of the source, which are not always exact repeats. Equal entries are not always repeated. Toxic doses and inconclusive results are not listed. Rule as the data show it: active = T/C of 150% or more; inactive = T/C below 125%.

System: L1210 leukemia ip in BDF1 mice, survival T/C
Assay: NCI In Vivo Anticancer Drug Screen. Data for tumor model L1210 Leukemia (intraperitoneal) in B6D2F1 (BDF1) mice
Details: endpoint: mean survival time, higher = longer survival
Procedure, shortened: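 Tumor cells were implanted, animals were treated, and survival was followed. The result divides the treated measurement by the vehicle-control measurement.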

[1] = dose: 100.0 mg/kg/injection, schedule: Q04DX003 (ip), vehicle: saline
[2] = dose: 200.0 mg/kg/injection, schedule: Q04DX003 (ip), vehicle: saline
[3] = dose: 400.0 mg/kg/injection, schedule: Q04DX003 (ip), vehicle: saline
[4] = dose: 100.0 mg/kg/injection, schedule: Q01DX009 (ip), vehicle: Klucel (hydroxypropylcellulose) (HPC)
[5] = dose: 200.0 mg/kg/injection, schedule: Q01DX009 (ip), vehicle: Klucel (hydroxypropylcellulose) (HPC)
[6] = dose: 400.0 mg/kg/injection, schedule: Q01DX009 (ip), vehicle: Klucel (hydroxypropylcellulose) (HPC)
[7] = dose: 100.0 mg/kg/injection, schedule: Q01DX009 (ip), vehicle: saline with Tween-80
[8] = dose: 200.0 mg/kg/injection, schedule: Q01DX009 (ip), vehicle: saline with Tween-80
[9] = dose: 400.0 mg/kg/injection, schedule: Q01DX009 (ip), vehicle: saline with Tween-80
[10] = dose: 50.0 mg/kg/injection, schedule: Q01DX001 (ip), vehicle: saline
[11] = dose: 100.0 mg/kg/injection, schedule: Q01DX001 (ip), vehicle: saline
[12] = dose: 200.0 mg/kg/injection, schedule: Q01DX001 (ip), vehicle: saline
[13] = dose: 400.0 mg/kg/injection, schedule: Q01DX001 (ip), vehicle: saline
[14] = dose: 50.0 mg/kg/injection, schedule: Q01DX009 (ip), vehicle: saline
[15] = dose: 100.0 mg/kg/injection, schedule: Q01DX009 (ip), vehicle: saline
[16] = dose: 200.0 mg/kg/injection, schedule: Q01DX009 (ip), vehicle: saline
[17] = dose: 100.0 mg/kg/injection, schedule: Q04DX003 (ip), vehicle: Klucel (hydroxypropylcellulose) (HPC)
[18] = dose: 200.0 mg/kg/injection, schedule: Q04DX003 (ip), vehicle: Klucel (hydroxypropylcellulose) (HPC)
[19] = dose: 400.0 mg/kg/injection, schedule: Q04DX003 (ip), vehicle: Klucel (hydroxypropylcellulose) (HPC)
[20] = dose: 50.0 mg/kg/injection, schedule: Q01DX009 (ip), vehicle: Klucel (hydroxypropylcellulose) (HPC)
[21] = dose: 50.0 mg/kg/injection, schedule: Q01DX009 (ip), vehicle: saline with Tween-80
[22] = dose: 100.0 mg/kg/injection, schedule: Q01DX001 (ip), vehicle: carboxymethylcellulose (CMC)
[23] = dose: 200.0 mg/kg/injection, schedule: Q01DX001 (ip), vehicle: carboxymethylcellulose (CMC)
[24] = dose: 400.0 mg/kg/injection, schedule: Q01DX001 (ip), vehicle: carboxymethylcellulose (CMC)

Measured: T/C

CCCCCCC12CCC(O)C1(CCCCCCC(=O)O)O2 (stereo not drawn)
inactive: dose: 50.0 mg/kg/injection, schedule: Q04DX002 (ip), vehicle: saline 95 % of control | dose: 100.0 mg/kg/injection, schedule: Q04DX002 (ip), vehicle: saline 102 % of control | dose: 200.0 mg/kg/injection, schedule: Q04DX002 (ip), vehicle: saline 91 % of control

Nc1ccn(CC(=O)N2CCC3(CC2)SSC2(CCN(C(=O)Cn4ccc(N)nc4=O)CC2)S3)c(=O)n1
inactive: [1] 97 % of control | [2] 91 % of control | [3] 97 % of control

CCCC(=O)Nc1cc([N+](=O)[O-])ccc1OC
inactive: [4] 104 % of control | [5] 104 % of control | [6] 98 % of control

CC1=CS(=O)(=O)CC(=O)N1
inactive: [7] 101 % of control | [8] 100 % of control | [9] 97 % of control

O=Nc1nc2ncccn2c1-c1ccccc1
inactive: [10] 97 % of control | [11] 101 % of control | [12] 103 % of control | [13] 109 % of control

[C-]#[N+]C([N+]#[C-])=S(C)C
inactive: [14] 102 % of control | [15] 109 % of control | [1] 103 % of control | [16] 105 % of control | [2] 101 % of control

ClCc1ccc(CCl)c2ccccc12
inactive: [17] 104 % of control | [18] 105 % of control | [19] 100 % of control

C=COCCCCCC(C)C
inactive: [20] 96 % of control | [4] 106 % of control | [17] 107 % of control | [5] 91 % of control | [18] 105 % of control | [19] 104 % of control

CN(C)c1ccc(C2NC(c3ccccc3)c3c(ccc4ccccc34)O2)cc1 (stereo not drawn)
inactive: [11] 92 % of control | [1] 90 % of control | [12] 89 % of control | [13] 89 % of control | [3] 90 % of control

COc1cccc2c(=O)c(COC(C)=O)c(C)[nH]c12
inactive: dose: 12.5 mg/kg/injection, schedule: Q01DX009 (ip), vehicle: saline with Tween-80 100 % of control | dose: 25.0 mg/kg/injection, schedule: Q01DX009 (ip), vehicle: saline with Tween-80 100 % of control | [21] 98 % of control | [7] 106 % of control

O=C1Nc2ccc3c(c2/C1=C\c1cc2c(cc1Br)OCO2)OCO3
inactive: dose: 50.0 mg/kg/injection, schedule: Q01DX001 (ip), vehicle: alcohol 93 % of control | dose: 100.0 mg/kg/injection, schedule: Q01DX001 (ip), vehicle: alcohol 93 % of control | dose: 200.0 mg/kg/injection, schedule: Q01DX001 (ip), vehicle: alcohol 98 % of control | dose: 400.0 mg/kg/injection, schedule: Q01DX001 (ip), vehicle: alcohol 96 % of control

OCc1ccccc1
inactive: [7] 105 % of control | [17] 100 % of control | [8] 102 % of control | [18] 101 % of control | [9] 96 % of control | [19] 98 % of control

CCN(CC)CCOC(=O)Nc1cccc(Cl)c1
inactive: dose: 25.0 mg/kg/injection, schedule: Q01DX009 (ip), vehicle: saline 100 % of control | [14] 98 % of control | [15] 100 % of control and 109 % of control

O=C(O)CCCCc1ccc(CCCCC(=O)O)cc1
inactive: [21] 96 % of control | [7] 106 % of control | [17] 97 % of control | [18] 104 % of control

CCOC(=O)CC(C)(C)C1CC1
inactive: [10] 91 % of control | [11] 96 % of control | [12] 96 % of control | [13] 94 % of control

O=C(Nc1ccccc1C(F)(F)F)N(Cc1ccccc1)c1ccccc1
inactive: [4] 93 % of control | [5] 92 % of control | [6] 98 % of control

CC(C)CC(N)C(=O)OCc1ccccc1 (stereo not drawn)
inactive: [15] 105 % of control | [1] 97 % of control | [16] 107 % of control | [2] 101 % of control | dose: 400.0 mg/kg/injection, schedule: Q01DX009 (ip), vehicle: saline 98 % of control | [3] 97 % of control

N#Cc1ccc(CCc2ccc(Cl)cc2)cc1
inactive: [10] 94 % of control | [11] 95 % of control | [12] 101 % of control | [13] 92 % of control

C=CCc1ccc(OCCNC(=O)Nc2ccc(C)cc2[N+](=O)[O-])c(OC)c1
inactive: [20] 87 % of control | [4] 98 % of control | [17] 91 % of control | [5] 98 % of control | [18] 96 % of control | [19] 96 % of control

COB(CCCCB(OC)OC)OC
inactive: dose: 100.0 mg/kg/injection, schedule: Q01DX009 (ip), vehicle: saline sonified 96 % of control | [1] 100 % of control | dose: 200.0 mg/kg/injection, schedule: Q01DX009 (ip), vehicle: saline sonified 92 % of control | [2] 107 % of control | dose: 400.0 mg/kg/injection, schedule: Q01DX009 (ip), vehicle: saline sonified 87 % of control | [3] 94 % of control

NC(=O)CNc1ccccc1C(=O)O
inactive: dose: 100.0 mg/kg/injection, schedule: Q01DX001 (ip), vehicle: Klucel (hydroxypropylcellulose) (HPC) 93 % of control | dose: 200.0 mg/kg/injection, schedule: Q01DX001 (ip), vehicle: Klucel (hydroxypropylcellulose) (HPC) 96 % of control | dose: 400.0 mg/kg/injection, schedule: Q01DX001 (ip), vehicle: Klucel (hydroxypropylcellulose) (HPC) 93 % of control

COC1OCC(OS(C)(=O)=O)C(NC(C)=O)C1OS(C)(=O)=O (stereo not drawn)
inactive: [22] 104 % of control | dose: 177.0 mg/kg/injection, schedule: Q01DX001 (ip), vehicle: carboxymethylcellulose (CMC) 100 % of control | [23] 98 % of control | dose: 266.0 mg/kg/injection, schedule: Q01DX001 (ip), vehicle: carboxymethylcellulose (CMC) 94 % of control and 108 % of control | [24] 94 % of control and 103 % of control | dose: 600.0 mg/kg/injection, schedule: Q01DX001 (ip), vehicle: carboxymethylcellulose (CMC) 97 % of control

CCOC(=O)CCCc1ccc(N=NN(C)CC(C)C)cc1
inactive: [22] 107 % of control | dose: 100.0 mg/kg/injection, schedule: Q01DX009 (ip), vehicle: carboxymethylcellulose (CMC) 116 % of control | [23] 102 % of control | dose: 200.0 mg/kg/injection, schedule: Q01DX009 (ip), vehicle: carboxymethylcellulose (CMC) 107 % of control | [24] 113 % of control

CC1CC/C(=N\N(C)C)c2ccccc21 (stereo not drawn)
inactive: [7] 120 % of control | dose: 100.0 mg/kg/injection, schedule: Q04DX003 (ip), vehicle: saline with Tween-80 117 % of control | dose: 200.0 mg/kg/injection, schedule: Q04DX003 (ip), vehicle: saline with Tween-80 103 % of control | dose: 400.0 mg/kg/injection, schedule: Q04DX003 (ip), vehicle: saline with Tween-80 105 % of control

CC(CN)N(C)C (stereo not drawn)
inactive: [14] 89 % of control | [15] 95 % of control | [1] 93 % of control | [16] 89 % of control | [2] 97 % of control
